Measured values reported in patent publication US9283222B2 (priority 2006, dated 2016).

Target: Recombinant Human Poly(ADP-Ribose) Polymerase (PARP), PARP-1 (Homo sapiens (Human), UniProt P09874)
Conditions: read-out: PARP-1 (Ki); Table 1; text calls the values EC50s

Recombinant Human Poly(ADP-Ribose) Polymerase (PARP), PARP-1, sequence (P09874 whole entry): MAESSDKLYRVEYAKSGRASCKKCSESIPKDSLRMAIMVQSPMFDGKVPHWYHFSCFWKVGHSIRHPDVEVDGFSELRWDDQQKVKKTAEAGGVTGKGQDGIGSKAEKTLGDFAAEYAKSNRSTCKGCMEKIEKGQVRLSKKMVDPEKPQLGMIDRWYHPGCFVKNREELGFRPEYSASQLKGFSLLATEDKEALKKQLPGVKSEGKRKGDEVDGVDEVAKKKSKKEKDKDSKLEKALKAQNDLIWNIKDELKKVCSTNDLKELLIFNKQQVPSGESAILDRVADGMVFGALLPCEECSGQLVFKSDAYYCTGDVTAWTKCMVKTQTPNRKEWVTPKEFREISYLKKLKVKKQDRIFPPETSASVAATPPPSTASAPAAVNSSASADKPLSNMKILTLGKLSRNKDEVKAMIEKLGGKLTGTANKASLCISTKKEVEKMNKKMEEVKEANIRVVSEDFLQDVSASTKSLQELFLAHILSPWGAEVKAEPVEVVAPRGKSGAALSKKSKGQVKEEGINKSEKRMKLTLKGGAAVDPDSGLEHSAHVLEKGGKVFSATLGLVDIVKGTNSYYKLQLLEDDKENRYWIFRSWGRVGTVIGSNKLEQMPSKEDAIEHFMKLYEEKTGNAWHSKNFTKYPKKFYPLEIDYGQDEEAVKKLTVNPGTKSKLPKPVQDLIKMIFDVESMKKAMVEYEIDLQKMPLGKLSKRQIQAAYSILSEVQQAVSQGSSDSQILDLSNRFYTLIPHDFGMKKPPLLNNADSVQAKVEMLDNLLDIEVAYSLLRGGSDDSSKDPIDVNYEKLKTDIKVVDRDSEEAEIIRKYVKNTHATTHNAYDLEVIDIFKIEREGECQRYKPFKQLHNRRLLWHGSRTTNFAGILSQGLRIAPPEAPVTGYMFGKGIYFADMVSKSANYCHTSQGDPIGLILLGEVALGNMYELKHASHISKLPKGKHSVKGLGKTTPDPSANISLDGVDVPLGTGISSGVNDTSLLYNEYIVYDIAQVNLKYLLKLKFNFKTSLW

| SMILES | Ki |
| --- | --- |
| O=C(c1cc(Cc2n[nH]c(=O)c3c2CCCC3)ccc1F)N1CCN(c2ncncn2)CC1 [Example 669, 4-(4-fluoro-3-{[4-(1,3,5-triazin-2-yl)piperazin-1-yl]carbonyl}benzyl)-5,6,7,8-tetrahydrophthalazin-1(2H)-one] | 1.2 nM |
| CN(C)c1ccc(NC(=O)c2cccc(Cc3n[nH]c(=O)c4c3CCCC4)c2)cc1 [Example 58, N-(4-(dimethylamino)phenyl)-3-((4-oxo-3,4,5,6,7,8-hexahydrophthalazin-1-yl)methyl)benzamide] | 51 nM |
| O=C(c1cccc(Cc2n[nH]c(=O)c3c2CCCC3)c1)N1CCC(c2ccccc2)CC1 [Example 61, 4-(3-((4-phenylpiperidin-1-yl)carbonyl)benzyl)-5,6,7,8-tetrahydrophthalazin-1(2H)-one] | 6 nM |
| O=C(NCCN1CCCC1)c1cccc(Cc2n[nH]c(=O)c3c2CCCC3)c1 [Example 52, 3-((4-oxo-3,4,5,6,7,8-hexahydrophthalazin-1-yl)methyl)-N-(2-pyrrolidin-1-ylethyl)benzamide] | 13 nM |
| O=C(Nc1cccc2c(O)cccc12)c1cccc(Cc2n[nH]c(=O)c3c2CCCC3)c1 [Example 367, N-(5-hydroxy-1-naphthyl)-3-((4-oxo-3,4,5,6,7,8-hexahydrophthalazin-1-yl)methyl)benzamide] | 45 nM |
| COc1ccc(N2CCN(C(=O)c3cc(Cc4n[nH]c(=O)c5c4CCCC5)ccc3F)CC2)cc1 [Example 623, 4-(4-fluoro-3-{[4-(4-methoxyphenyl)piperazin-1-yl]carbonyl}benzyl)-5,6,7,8-tetrahydrophthalazin-1(2H)-one] | 3 nM |
| O=C1CC[C@@H]2COc3ccc(Cc4n[nH]c(=O)c5c4CCCC5)cc3N12 [Example 371] | 14 nM |
| CC(=O)N(C)C1CCN(C(=O)c2cc(Cc3n[nH]c(=O)c4c3NCCC4)ccc2F)C1 (stereo not drawn) [Example 595, N-(1-{2-fluoro-5-[(5-oxo-1,2,3,4,5,6-hexahydropyrido[2,3-d]pyridazin-8-yl)methyl]benzoyl}pyrrolidine-3-yl)-N-methylacetamide] | 6 nM |
| O=C(c1cc(Cc2n[nH]c(=O)c3c2NCCC3)ccc1F)N1CCN(C(=O)C2CCCCC2)CC1 [Example 568, 8-(3-{[4-(cyclohexylcarbonyl)piperazin-1-yl]carbonyl}-4-fluorobenzyl)-2,3,4,6-tetrahydropyrido[2,3-d]pyridazin-5(1H)-one] | 1.1 nM |
| O=C1CCCN1c1cc(Cc2n[nH]c(=O)c3c2CCCC3)cc[n+]1[O-] [Example 133, 4-((1-oxido-2-(2-oxopyrrolidin-1-yl)pyridin-4-yl)methyl)-5,6,7,8-tetrahydrophthalazin-1(2H)-one] | 724 nM |
| NC(=O)C1(C(=O)Nc2cccc(Cc3n[nH]c(=O)c4c3CCCC4)c2)CC1 [Example 141] | 77 nM |
| CN1CCCN(C(=O)c2cc(Cc3n[nH]c(=O)c4c3CCCC4)ccc2F)CC1 [Example 502, 4-{4-fluoro-3-[(4-methyl-1,4-diazepan-1-yl)carbonyl]benzyl}-5,6,7,8-tetrahydrophthalazin-1(2H)-one] | 1.5 nM |
| O=C(Nc1cccc(Cc2n[nH]c(=O)c3c2CCCC3)c1)[C@H](O)CCc1ccccc1 [Example 164, (2R)-2-hydroxy-N-(3-((4-oxo-3,4,5,6,7,8-hexahydrophthalazin-1-yl)methyl)phenyl)-4-phenylbutanamide] | 28 nM |
| O=C(CCCC(=O)Nc1cccc(Cc2n[nH]c(=O)c3c2CCCC3)c1)Nc1ccccc1 [Example 172, N-(3-((4-oxo-3,4,5,6,7,8-hexahydrophthalazin-1-yl)methyl)phenyl)-N′-phenylpentanediamide] | 3 nM |
| O=C(c1cc(Cc2n[nH]c(=O)c3c2CCCC3)ccc1F)N1CCN(c2cccnc2)CC1 [Example 756, 4-{4-fluoro-3-[(4-pyridin-3-ylpiperazin-1-yl)carbonyl]benzyl}-5,6,7,8-tetrahydrophthalazin-1(2H)-one] | 0.9 nM |
| CCN(CCNC(=O)c1ccccc1)C(=O)c1cc(Cc2n[nH]c(=O)c3c2CCCC3)ccc1F [Example 742, N-[2-(benzoylamino)ethyl]-N-ethyl-2-fluoro-5-[(4-oxo-3,4,5,6,7,8-hexahydrophthalazin-1-yl)methyl]benzamide] | 1.8 nM |
| CC1(C)SCNC1C(=O)N1CCN(C(=O)c2cc(Cc3n[nH]c(=O)c4c3NCCC4)ccc2F)CC1 (stereo not drawn) [Example 692, 8-[3-({4-[(5,5-dimethyl-1,3-thiazolidin-4-yl)carbonyl]piperazin-1-yl}carbonyl)-4-fluorobenzyl]-2,3,4,6-tetrahydropyrido[2,3-d]pyridazin-5(1H)-one] | 1.6 nM |
| O=C(OCc1ccccc1)N1CCCN(C(=O)c2cc(Cc3n[nH]c(=O)c4c3NCCC4)ccc2F)CC1 [Example 659, benzyl 4-{2-fluoro-5-[(5-oxo-1,2,3,4,5,6-hexahydropyrido[2,3-d]pyridazin-8-yl)methyl]benzoyl}-1,4-diazepane-1-carboxylate] | 2.5 nM |
| NC(=O)C1CCCN(C(=O)c2cccc(Cc3n[nH]c(=O)c4c3CCCC4)c2)C1 (stereo not drawn) [Example 429, 1-(3-((4-oxo-3,4,5,6,7,8-hexahydrophthalazin-1-yl)methyl)benzoyl)piperidine-3-carboxamide] | 19 nM |
| O=C(c1cc(Cc2n[nH]c(=O)c3c2CCCC3)ccc1F)N1CCN(c2cncnc2)CC1 [Example 757, 4-{4-fluoro-3-[(4-pyrimidin-5-ylpiperazin-1-yl)carbonyl]benzyl}-5,6,7,8-tetrahydrophthalazin-1(2H)-one] | 1.2 nM |

Continued by falling Ki, values first:

| Ki | SMILES |
| --- | --- |
| 1700 nM | CCC(C)C(C(=O)Nc1cccc(Cc2n[nH]c(=O)c3c2CCCC3)c1)c1ccccc1 (stereo not drawn) [Example 170, 3-methyl-N-(3-((4-oxo-3,4,5,6,7,8-hexahydrophthalazin-1-yl)methyl)phenyl)-2-phenylpentanamide] |
| 531 nM | CO[C@@H](C(=O)Nc1cccc(Cc2n[nH]c(=O)c3c2CCCC3)c1)c1ccccc1 [Example 151, (2R)-2-methoxy-N-(3-((4-oxo-3,4,5,6,7,8-hexahydrophthalazin-1-yl)methyl)phenyl)-2-phenylacetamide] |
| 487 nM | O=C(NC1CC1)c1cccc(-c2cc(CCc3n[nH]c(=O)c4c3CCCC4)ccc2F)c1 [Example 270, N-cyclopropyl-2′-fluoro-5′-(2-(4-oxo-3,4,5,6,7,8-hexahydrophthalazin-1-yl)ethyl)-1,1′-biphenyl-3-carboxamide] |
| 132 nM | O=C(Nc1ccc(N2CCOCC2)cc1)c1cccc(Cc2n[nH]c(=O)c3c2CCCC3)c1 [Example 363, N-(4-morpholin-4-ylphenyl)-3-((4-oxo-3,4,5,6,7,8-hexahydrophthalazin-1-yl)methyl)benzamide] |
| 41 nM | CC1CCCN1Cc1cccc(-c2cccc(Cc3n[nH]c(=O)c4c3CCCC4)c2)c1 (stereo not drawn) [Example 129, 4-((3′-((2-methylpyrrolidin-1-yl)methyl)-1,1′-biphenyl-3-yl)methyl)-5,6,7,8-tetrahydrophthalazin-1(2H)-one] |
| 12 nM | O=C(COc1ccc(OCc2ccccc2)cc1)Nc1cc(Cc2n[nH]c(=O)c3c2NCCC3)ccc1F [Example 481, 2-(4-(benzyloxy)phenoxy)-N-(2-fluoro-5-((5-oxo-1,2,3,4,5,6-hexahydropyrido(2,3-d)pyridazin-8-yl)methyl)phenyl)acetamide] |
| 8 nM | O=C(c1cc(Cc2n[nH]c(=O)c3c2NCCC3)ccc1F)N1CCN(CCN2CCCCC2)CC1 [Example 570, 8-(4-fluoro-3-{[4-(2-piperidin-1-ylethyl)piperazin-1-yl]carbonyl}benzyl)-2,3,4,6-tetrahydropyrido[2,3-d]pyridazin-5(1H)-one] |
| 4 nM | O=C(c1cc(Cc2n[nH]c(=O)c3c2NCCC3)ccc1F)N1CCN(CCN2CCOCC2)CC1 [Example 566, 8-(4-fluoro-3-{[4-(2-morpholin-4-ylethyl)piperazin-1-yl]carbonyl}benzyl)-2,3,4,6-tetrahydropyrido[2,3-d]pyridazin-5(1H)-one] |
| 3 nM | O=C(c1cccc(Cc2n[nH]c(=O)c3c2CCCC3)c1)N1CCN(C(=O)c2ccno2)CC1 [Example 60, 4-(3-((4-(isoxazol-5-ylcarbonyl)piperazin-1-yl)carbonyl)benzyl)-5,6,7,8-tetrahydrophthalazin-1(2H)-one] |
| 2.8 nM | CC(C)(C)OC(=O)NC1CCN(C(=O)c2cc(Cc3n[nH]c(=O)c4c3NCCC4)ccc2F)CC1 [Example 700, tert-butyl 1-{2-fluoro-5-[(5-oxo-1,2,3,4,5,6-hexahydropyrido[2,3-d]pyridazin-8-yl)methyl]benzoyl}piperidin-4-ylcarbamate] |
| 2.3 nM | O=C(c1cc(Cc2n[nH]c(=O)c3c2NCCC3)ccc1F)N1CCN(c2cccc(F)c2)CC1 [Example 547, 8-(4-fluoro-3-{[4-(3-fluorophenyl)piperazin-1-yl]carbonyl}benzyl)-2,3,4,6-tetrahydropyrido[2,3-d]pyridazin-5(1H)-one] |
| 2 nM | O=C(c1cc(Cc2n[nH]c(=O)c3c2CCCC3)ccc1F)N1CCN(C2CCCC2)CC1 [Example 575, 4-{3-[(4-cyclopentylpiperazin-1-yl)carbonyl]-4-fluorobenzyl}-5,6,7,8-tetrahydrophthalazin-1(2H)-one] |
| 1.5 nM | O=C(c1cnccn1)N1CCN(C(=O)c2cc(Cc3n[nH]c(=O)c4c3NCCC4)ccc2F)CC1 [Example 662, 8-(4-fluoro-3-{[4-(pyrazin-2-ylcarbonyl)piperazin-1-yl]carbonyl}benzyl)-2,3,4,6-tetrahydropyrido[2,3-d]pyridazin-5(1H)-one] |
| 1.1 nM | CCS(=O)(=O)N1CCN(C(=O)c2cc(Cc3n[nH]c(=O)c4c3CCCC4)ccc2F)CC1 [Example 586, 4-(3-{[4-(ethylsulfonyl)piperazin-1-yl]carbonyl}-4-fluorobenzyl)-5,6,7,8-tetrahydrophthalazin-1(2H)-one] |
| 1 nM | CCN(CCNC(=O)c1cccnc1)C(=O)c1cc(Cc2n[nH]c(=O)c3c2CCCC3)ccc1F [Example 763, N-[2-(ethyl{2-fluoro-5-[(4-oxo-3,4,5,6,7,8-hexahydrophthalazin-1-yl)methyl]benzoyl}amino)ethyl]nicotinamide] |
| 0.7 nM | O=C(c1ccc2nc[nH]c2c1)N1CCN(C(=O)c2cc(Cc3n[nH]c(=O)c4c3NCCC4)ccc2F)CC1 [Example 655] |
